Measurements as given in patent US4988517A, “Method and composition for inhibiting colon carcinogenesis” (American Health Foundation, priority 1988, dated 1991).

Experiments:
[1] = Body weights of male F344 rats fed the experimental diets; format: in vivo; settings: for Body wt, Initial (Wk 0) / Body wt, wk 4 / Body wt, wk 8 / Body wt, wk 16 / Body wt, wk 22 / Body wt, wk 30 / Body wt, wk 37 (at termination): 25 ppm in diet, Mean ± SD
From the text: (§1) Experimental Procedure. Male F344 rats received at weaning were quarantined for 10 days and given access to AIN-76A semipurified diet (control diet). They were then be randomly allocated by weight to one of three dietary groups (control diet and 25 ppm BSC and 25 ppm benzylthiocyanate ("BTC") diets). […] Therefore one of our goals was to compare BSC with its sulfur analog BTC. Each dietary group was divided into AOM-treated (27 animals per subgroup) and vehicle-treated (12 animals per subgroup) subgroups and housed in plastic cages with filter tops in the animal holding room under controlled environmental conditions.
(§2) Beginning at 5 wk of age, groups of rats fed the control diet were transferred to diets containing 25 ppm BSC or 25 ppm BTC. At 7 wk of age, the animals in each group, except the vehicle-treated controls, received two weekly s.c. injections of AOM at a dose level of 15 mg/kg body weight/wk. Vehicle controls were treated with an equal volume of normal saline. One wk after AOM or saline treatment, animals receiving the BSC and BTC diets were transferred to the control diets and continued on this diet until the termination of the experiment. The 1-wk delay before transferring to control diet was to ensure complete metabolism and excretion of the carcinogen. The animals receiving the control diet continued on the same diet. The experiment was terminated 34 wk after the last AOM injection.
(§3) Body weights were recorded weekly until the animals reach 16 wk of age and then every 4 wk. Six vehicle-treated animals randomly chosen from each dietary group while they were consuming experimental and control diets were used for tissue and blood plasma glutathione peroxidase analysis.

[2] = test system: azoxymethane-induced colon tumors; experiment: AOM-induced colon tumor incidence and multiplicity (initiation phase feeding); format: in vivo, male F344 rats
From the text: as §1, §2
(§4) Both AOM-and vehicle-treated animals were sacrificed by CO2 euthanasia. Following laparotomy, the entire stomach, small intestine, and large intestine were resected and opened longitudinally, and the contents flushed with normal saline. The location, number, and size of the colon and small intestinal tumors were noted grossly under the dissection microscope. All other organs, including liver and kidneys, were also examined grossly for tumors. Tissues were fixed in 10% buffered formalin, embedded in paraffin blocks, and processed by routine histological methods with the use of eosin and hematoxylin stains.
(§5) Statistical Analysis. The data on tumor incidence were analyzed statistically by the x^2 method and Fischer's exact probability test, and tumor multiplicity was analyzed by Student's t test. Biochemical results were analyzed by Student's t test.
(§6) Using the above-identified procedures, a study was made of the effect of feeding benzylselenocyanate and its sulfur analogue, benzylthiocyanate, two (2) weeks before, during and until one (1) week after carcinogen administration (initiation phase) on intestinal carcinogenesis induced by azoxymethane (CAS: 25843-45-2) in male F344 rats.

[3] = test system: azoxymethane-induced small intestinal tumors; experiment: AOM-induced small intestinal tumor incidence and multiplicity; format: in vivo, male F344 rats
From the text: as §1, §2, §4, §5, §6

[4] = test system: azoxymethane-induced ear duct tumors; experiment: AOM-induced ear duct tumor incidence; format: in vivo, male F344 rats; settings: 25 ppm in diet
From the text: as §1, §2
Both AOM-and vehicle-treated animals were sacrificed by CO2 euthanasia. Following laparotomy, the entire stomach, small intestine, and large intestine were resected and opened longitudinally, and the contents flushed with normal saline. The location, number, and size of the colon and small intestinal tumors were noted grossly under the dissection microscope. All other organs, including liver and kidneys, were also examined grossly for tumors. […]
as §5

[5] = test system: azoxymethane-induced metastasis; experiment: AOM-induced metastasis; format: in vivo, male F344 rats
From the text: as §1, §2, §4

[6] = test system: selenium-dependent glutathione peroxidase; experiment: Selenium-dependent glutathione peroxidase activity in tissues of rats fed the diets; format: in vivo, male F344 rats
Description: as §3
Biochemical Determination. For the determination of tissue and blood plasma glutathione peroxidase activity, 6 vehicle-treated animals from each dietary group, while the animals were on experimental and control diets, were used. Before sacrificing the animals, blood was obtained under ether anesthesia by cardiac puncture with a syringe. They were then decapitated,and liver, kidneys, small intestine, and colon were rapidly removed. The liver was perfused with ice-cold normal saline. The small intestine and colon were slit open longitudinally and freed from all the contents, and the mucosa was scraped with a microscope glass slide. The liver and kidneys were trimmed free of connective tissue, minced with scissors, and homogenized for 10 s in 3 volumes of buffer, pH 7.3 (0.25 sucrose-10 mM EDTA-50 mM potassium phosphate) using a Brinkman Polytron at low speed. The colonic and small intestinal mucosal scrapings were immediately placed into 3 volumes of the same buffer and homogenized similarly. The homogenates were centrifuged in a Sorvall RC-2B centrifuge at 10,000×g, 4° C., for 20 min. The supernatant was centrifuged in a Beckman Ultracentrifuge at 100,000×g, 4° C., for 1 h. The resulting cytosol fraction was used for determination of glutathione peroxidase activity and protein.
Glutathione peroxidase activity was determined spectrophotometrically according to a modification of the enzyme-coupled assay procedure of Paglia and Valentine. The reaction mixture consisted of 50 mM potassium phosphate buffer (pH 7.0), 1 mM EDTA, 0.2 mM NADPH, 1 enzyme unit/ml oxidized glutathione-reductase, 1 mM glutathione, and 1.5 mM cumene hydroperoxide in a total volume of 1 ml. The cytosol was added to the above mixture and allowed to incubate 5 min. at room temperature. Total glutathione peroxide was measured with cumene hydroperoxide as a substrate. Selenium-dependent glutathione peroxide was measured with tert-butyl hydroperoxide. The reaction was started with the addition of substrate solution. Absorbance was measured at 340 nm, and activity was measured from the slope of the lines as mol NADPH oxidized/min/mg protein. Blank reactions without cytosol were run simultaneously. Protein concentration in the cytosol fraction was measured by the method of Lowry et al. with bovine serum albumin as standard.
as §5

[7] = test system: non-selenium-dependent glutathione peroxidase; experiment: Non-selenium-dependent glutathione peroxidase activity in tissues of rats fed the diets; format: in vivo, male F344 rats; settings: among the dietary groups
Description: as §3
Biochemical Determination. For the determination of tissue and blood plasma glutathione peroxidase activity, 6 vehicle-treated animals from each dietary group, while the animals were on experimental and control diets, were used. Before sacrificing the animals, blood was obtained under ether anesthesia by cardiac puncture with a syringe. They were then decapitated,and liver, kidneys, small intestine, and colon were rapidly removed. The liver was perfused with ice-cold normal saline. […]
Glutathione peroxidase activity was determined spectrophotometrically according to a modification of the enzyme-coupled assay procedure of Paglia and Valentine. […] Total glutathione peroxide was measured with cumene hydroperoxide as a substrate. Selenium-dependent glutathione peroxide was measured with tert-butyl hydroperoxide. […] Absorbance was measured at 340 nm, and activity was measured from the slope of the lines as mol NADPH oxidized/min/mg protein. […] Protein concentration in the cytosol fraction was measured by the method of Lowry et al. with bovine serum albumin as standard.

[8] = General toxicity observation in rats fed the diets; format: in vivo, male F344 rats; settings: 25 ppm in diet
From the text: as §1, §2, §3

[9] = test system: carcinogenesis induced by chemicals; settings: experimental animals; cited from earlier work
[10] = cited from earlier work
[11] = 25 ppm in diet 2 wk before to 1 wk after AOM
[12] = 25 ppm in diet, 27 (BSC) or 26 (BTC) animals/group
[13] = 25 ppm in diet 5 wk, Mean ± SE (n = 6)

SMILES: N#CSCc1ccccc1 [BTC, benzylthiocyanate, reference compound]
- Body weights of animals fed experimental vs control diets ([1]; AOM or vehicle treated, in words): comparable
- Body wt, Initial (Wk 0) ([1]; AOM treated): 40 ± 3 g
- Body wt, wk 4 ([1]; AOM treated): 180 ± 10 g
- Body wt, wk 8 ([1]; AOM treated): 281 ± 18 g
- Body wt, wk 16 ([1]; AOM treated): 356 ± 21 g
- Body wt, wk 22 ([1]; AOM treated): 394 ± 22 g
- Body wt, wk 30 ([1]; AOM treated): 432 ± 24 g
- Body wt, wk 37 (at termination) ([1]; AOM treated): 459 ± 19 g
- Body wt, Initial (Wk 0) ([1]; Vehicle treated): 40 ± 3 g
- Body wt, wk 4 ([1]; Vehicle treated): 182 ± 10 g
- Body wt, wk 8 ([1]; Vehicle treated): 286 ± 18 g
- Body wt, wk 16 ([1]; Vehicle treated): 362 ± 21 g
- Body wt, wk 22 ([1]; Vehicle treated): 406 ± 22 g
- Body wt, wk 30 ([1]; Vehicle treated): 449 ± 24 g
- Body wt, wk 37 (at termination) ([1]; Vehicle treated): 470 ± 24 g
- Colon tumor incidence, Adenocarcinoma [2, 11]: 31 % of animals with tumors
- Colon tumor incidence, Adenoma [2, 11]: 62 % of animals with tumors
- Colon tumor incidence, Total (adenomas plus adenocarcinomas) [2, 11]: 69 % of animals with tumors
- Number of animals with colon tumors, Adenocarcinoma [2, 12]: 8 number of animals
- Number of animals with colon tumors, Adenoma [2, 12]: 16 number of animals
- Number of animals with colon tumors, Total [2, 12]: 18 number of animals
- Colon tumor multiplicity, Adenocarcinoma ([2]; 25 ppm in diet, Mean ± SD): 0.35 ± 0.4 no. of tumors/animals
- Colon tumor multiplicity, Adenoma ([2]; 25 ppm in diet, Mean ± SD): 1.27 ± 1.3 no. of tumors/animals
- Colon tumor multiplicity, Total ([2]; 25 ppm in diet, Mean ± SD): 1.62 ± 1.3 no. of tumors/animals
- Number of tumors per group, colon Adenocarcinoma ([2]; 25 ppm in diet, in parentheses): 9 number of tumors per group
- Incidence of total colon tumors (in words) ([2]; vs control diet): no differences in colon tumor incidences between the animals fed the control diet and BTC diet
- Small intestinal tumor incidence, Adenocarcinoma [3, 11]: 38 % of animals with tumors
- Small intestinal tumor incidence, Adenoma [3, 11]: 12 % of animals with tumors
- Small intestinal tumor incidence, Total [3, 11]: 38 % of animals with tumors
- Number of animals with small intestinal tumors, Adenocarcinoma [3, 12]: 10 number of animals
- Number of animals with small intestinal tumors, Adenoma [3, 12]: 3 number of animals
- Number of animals with small intestinal tumors, Total [3, 12]: 10 number of animals
- Small intestinal tumor multiplicity, Adenocarcinoma ([3]; 25 ppm in diet, Mean ± SD): 0.34 0.6 no. of tumors/animal
- Small intestinal tumor multiplicity, Adenoma ([3]; 25 ppm in diet, Mean ± SD): 0.12 0.3 no. of tumors/animal
- Small intestinal tumor multiplicity, Total ([3]; 25 ppm in diet, Mean ± SD): 0.46 0.6 no. of tumors/animal
- Number of animals with ear duct tumors ([4]; 27 (BSC) or 26 (BTC) animals/group): 5 animals
- % of animals with ear duct tumors ([4]; AOM treated): 19 % of animals
- No. of animals with metastasis ([5]; 25 ppm in diet, AOM treated): 0 No. of animals
- AOM-induced metastasis (in words) ([5]; several organs): none of the animals in BSC and BTC diet groups developed metastasis
- Selenium-dependent glutathione peroxidase activity, Kidney [6, 13]: 0.64 0.30 μmol NADPH oxidized/min/mg protein
- Selenium-dependent glutathione peroxidase activity, Liver [6, 13]: 1.90 0.66 μmol NADPH oxidized/min/mg protein
- Selenium-dependent glutathione peroxidase activity, Plasma [6, 13]: 0.69 0.16 μmol NADPH oxidized/min/mg protein
- Selenium-dependent glutathione peroxidase activity, Colon ([6]; 25 ppm in diet 5 wk, colonic mucosa, Mean ± SE (n = 6)): 0.23 0.06 μmol NADPH oxidized/min/mg protein
- Selenium-dependent glutathione peroxidase activity, Small intestine ([6]; 25 ppm in diet 5 wk, small intestinal mucosa, Mean ± SE (n = 6)): 0.20 0.10 μmol NADPH oxidized/min/mg protein
- Selenium-dependent glutathione peroxidase activity (in words) ([6]; liver and plasma): not affected
- Non-selenium-dependent glutathione peroxidase activity (in words) [7]: no differences in the activity of non-selenium-dependent glutathione peroxidase activity among the dietary groups
- Death after AOM treatment ([8]; 2 wk after AOM treatment): One
- Evidence of toxicity in animals fed the diet [8]: no evidence of toxicity
- Inhibition of chemically induced carcinogenesis [9]: inhibitor of carcinogenesis induced by chemicals in experimental animals

SMILES: [Se] [selenium]
- Reproductive and teratogenic effects ([10]; animals and humans): Toxic reproductive and teratogenic effects
- Toxic chronic feeding level ([10]; chronic feeding, animals): 5 to 10 ppm
